“Also recorded” adds a separate entry of the source.
Columns and labels:
[1] = tested on: MCF-7 (human breast cancer) cell line; assay: In vitro cytotoxic activity, MTT assay, MCF-7 cell line; details: for IC50: read-out: IC50 Values against MCF7, MTT assay, MCF7 cells, 24 h incubation with compound, three independent experiments, ± standard deviation; for cytotoxicity compared with cisplatin and carboplatin, MCF7: MCF7 cell line, comparison of IC50 values in words
Protocol: The trans-[Pt(NH3)2(thione)2].2NO3 complexes were evaluated for in vitro cytotoxic activity against A549 (human lung cancer), MCF-7 (human breast cancer) and HTC15 (human colon cancer) cell lines. The cells were seeded at 4×10^3 cells/well in 100 μL DMEM containing 10% FBS in 96-wells tissue culture plate and incubated for 72 h at 37° C., 5% CO2 in air and 90% relative humidity in CO2 incubator. […] The medium of wells was discarded and 100 μL DMEM containing MTT (3-(4,5-Dimethylthiazol-2-yl)-2,5-diphenyltetrazolium Bromide) (5 mg/mL) was added to the wells and incubated in CO2 incubator at 37° C. in dark for 4 h. After incubation, purple colored formazan (artificial chromogenic dye, product of the reduction of water insoluble tetrazolium salts e.g., MMT by dehydrogenases and reductases) in the cells is produced and appeared as dark crystals in the bottom of the wells. The resultant crystals were solublized by adding 100 μL of DMSO in each well. The solution was thoroughly mixed to dissolve the formazan crystals, producing a purple solution. The absorbance of the 96-wells plate was taken at 570 nm with Labsystems Multiskan EX-Enzyme-linked immunosorbent assay (EX-ELISA) reader against a reagent blank. The IC50 values were calculated from three independent experiments by generating an equation of logarithmic trend line of percentage cell viability against concentration of compounds in Microsoft excel.
(§1) The MTT assay was performed in three independent experiments, each in triplicate. The cancer cell lines used are A549 (human lung cancer), MCF-7 (human breast cancer) and HTC15 (human colon cancer) cell lines. Errors are standard deviations determined from at least three independent experiments.

[2] = tested on: HCT15 (human colon cancer) cell line; assay: In vitro cytotoxic activity, MTT assay, HCT15 cell line; format: cell-based; details: for IC50: MTT assay, HCT15 cells, 24 h incubation with compound, three independent experiments, ± standard deviation, read-out: IC50 Values against HCT15; for activity compared with cisplatin and carboplatin, HCT15: HCT15 cell line, comparison of IC50 values in words
Protocol: (§2) The trans-[Pt(NH3)2(thione)2].2NO3 complexes were evaluated for in vitro cytotoxic activity against A549 (human lung cancer), MCF-7 (human breast cancer) and HTC15 (human colon cancer) cell lines. The cells were seeded at 4×10^3 cells/well in 100 μL DMEM containing 10% FBS in 96-wells tissue culture plate and incubated for 72 h at 37° C., 5% CO2 in air and 90% relative humidity in CO2 incubator. After incubation, 100 μL of each sample solution (50, 25, 12.5 and 6.25 μM), prepared in DMEM, were added to cells and the cultures were incubated for 24 h. The medium of wells was discarded and 100 μL DMEM containing MTT (3-(4,5-Dimethylthiazol-2-yl)-2,5-diphenyltetrazolium Bromide) (5 mg/mL) was added to the wells and incubated in CO2 incubator at 37° C. in dark for 4 h. After incubation, purple colored formazan (artificial chromogenic dye, product of the reduction of water insoluble tetrazolium salts e.g., MMT by dehydrogenases and reductases) in the cells is produced and appeared as dark crystals in the bottom of the wells. The resultant crystals were solublized by adding 100 μL of DMSO in each well. The solution was thoroughly mixed to dissolve the formazan crystals, producing a purple solution. The absorbance of the 96-wells plate was taken at 570 nm with Labsystems Multiskan EX-Enzyme-linked immunosorbent assay (EX-ELISA) reader against a reagent blank. The IC50 values were calculated from three independent experiments by generating an equation of logarithmic trend line of percentage cell viability against concentration of compounds in Microsoft excel.
as §1

[3] = tested on: A549 (human lung cancer) cell line; assay: In vitro cytotoxic activity, MTT assay, A549 cell line; details: for IC50: read-out: IC50 Values against A549, MTT assay, A549 cells, 24 h incubation with compound, three independent experiments, ± standard deviation; for in vitro cytotoxicity compared with cisplatin and carboplatin, A549: A549 cell line, comparison of IC50 values in words
Protocol: as §2, §1

| Structure (SMILES) | IC50 [1] [µM] | IC50 [2] [µM] | IC50 [3] [µM] | activity compared with cisplatin and carboplatin, HCT15 [2] | in vitro cytotoxicity compared with cisplatin and carboplatin, A549 [3] | cytotoxicity compared with cisplatin and carboplatin, MCF7 [1] |
| --- | --- | --- | --- | --- | --- | --- |
| N.N.O=C([O-])C1(C(=O)[O-])CCC1.[Pt+2] [Carboplatin, carboplatin, reference compound] | 63 ± 2 | 53 ± 2 | 70 ± 2 | – | – | – |
| N.N.[Cl][Pt][Cl] [Cisplatin, cisplatin, reference compound] | 23 ± 3 | 32 ± 2 | 42 ± 2 | – | – | – |
| N.N.O=[N+]([O-])[O-].O=[N+]([O-])[O-].S=C1NCCN1.S=C1NCCN1.[Pt+2] [Complex 1, trans-[Pt(NH3)2(Imt)2]. 2NO3] | 80 ± 1 | 50 ± 1 | 52 ± 2 | almost the same cytotoxicity as carboplatin | slightly lower than cisplatin but still higher than carboplatin | – |
| CN1CCNC1=S.CN1CCNC1=S.N.N.O=[N+]([O-])[O-].O=[N+]([O-])[O-].[Pt+2] [Complex 2, trans-[Pt(NH3)2(MeImt)2]. 2NO3] | 70 ± 2 | 40 | 40 | comparable to cisplatin | almost two-fold better than that of carboplatin; also recorded: better cytotoxicity against A549 cancer cell line than cisplatin | – |
| CN1CCN(C)C1=S.CN1CCN(C)C1=S.N.N.O=[N+]([O-])[O-].O=[N+]([O-])[O-].[Pt+2] [Complex 3, trans-[Pt(NH3)2(Me2Imt)2]. 2NO3] | 92 ± 2 | 69 ± 2 | 70 ± 1 | less potent even than carboplatin | the same cytotoxicity as carboplatin | – |
| CCN1CCN(CC)C1=S.CCN1CCN(CC)C1=S.N.N.O=[N+]([O-])[O-].O=[N+]([O-])[O-].[Pt+2] [Complex 4, trans-[Pt(NH3)2(Et2Imt)2]. 2NO3] | 89 ± 1 | 63 ± 1 | 75 ± 1 | less potent even than carboplatin | – | – |
| CCCN1CCNC1=S.CCCN1CCNC1=S.N.N.O=[N+]([O-])[O-].O=[N+]([O-])[O-].[Pt+2] [Complex 5, trans-[Pt(NH3)2(PrImt)2]. 2NO3] | 45 ± 1 | 36 | 41 | comparable to cisplatin | almost two-fold better than that of carboplatin; also recorded: better cytotoxicity against A549 cancer cell line than cisplatin | between cisplatin and carboplatin |
| CC(C)N1CCNC1=S.CC(C)N1CCNC1=S.N.N.O=[N+]([O-])[O-].O=[N+]([O-])[O-].[Pt+2] [Complex 6, trans-[Pt(NH3)2(iPrImt)2]. 2NO3] | 86 ± 2 | 79 ± 1 | 66 ± 1 | less potent even than carboplatin | slightly lower than cisplatin but still higher than carboplatin | – |
| CC(C)N1CCN(C(C)C)C1=S.CC(C)N1CCN(C(C)C)C1=S.N.N.O=[N+]([O-])[O-].O=[N+]([O-])[O-].[Pt+2] [Complex 7, trans-[Pt(NH3)2(Pr2Imt)2].2 NO3] | 87 ± 2 | 53 ± 1 | 69 ± 1 | almost the same cytotoxicity as carboplatin | the same cytotoxicity as carboplatin | – |
| CCN1CCCNC1=S.CCN1CCCNC1=S.N.N.O=[N+]([O-])[O-].O=[N+]([O-])[O-].[Pt+2] [Complex 8, trans-[Pt(NH3)2(EtDiaz)2]. 2NO3] | 60 ± 2 | 43 | 48 ± 1 | comparable to cisplatin | slightly lower than cisplatin but still higher than carboplatin | between cisplatin and carboplatin |
| N.N.O=[N+]([O-])[O-].O=[N+]([O-])[O-].S=C1NCCCCN1.S=C1NCCCCN1.[Pt+2] [Complex 9, trans-[Pt(NH3)2(Diap)2]. 2NO3] | 69 ± 1 | 41 | 49 ± 1 | comparable to cisplatin | slightly lower than cisplatin but still higher than carboplatin | – |

From patent publication US10172823B1, “Method for inhibiting cancer cell growth with a transplatin complex” (KING FAHD UNIVERSITY OF PETROLEUM AND MINERALS, priority 2017, dated 2019)
